The results in this text go back to US11040981B2, “Pyrrolotriazine compounds and methods of inhibiting TAM kinases” (Syros Pharmaceuticals, Inc., priority 2017, dated 2021).

The structures appear in SMILES notation. A value given as a limit tells only on which side of the number the result lay.

For one assay, the target named is T1, FLT3 (Homo sapiens, UniProt P36888).
T1 sequence (P36888 27-993): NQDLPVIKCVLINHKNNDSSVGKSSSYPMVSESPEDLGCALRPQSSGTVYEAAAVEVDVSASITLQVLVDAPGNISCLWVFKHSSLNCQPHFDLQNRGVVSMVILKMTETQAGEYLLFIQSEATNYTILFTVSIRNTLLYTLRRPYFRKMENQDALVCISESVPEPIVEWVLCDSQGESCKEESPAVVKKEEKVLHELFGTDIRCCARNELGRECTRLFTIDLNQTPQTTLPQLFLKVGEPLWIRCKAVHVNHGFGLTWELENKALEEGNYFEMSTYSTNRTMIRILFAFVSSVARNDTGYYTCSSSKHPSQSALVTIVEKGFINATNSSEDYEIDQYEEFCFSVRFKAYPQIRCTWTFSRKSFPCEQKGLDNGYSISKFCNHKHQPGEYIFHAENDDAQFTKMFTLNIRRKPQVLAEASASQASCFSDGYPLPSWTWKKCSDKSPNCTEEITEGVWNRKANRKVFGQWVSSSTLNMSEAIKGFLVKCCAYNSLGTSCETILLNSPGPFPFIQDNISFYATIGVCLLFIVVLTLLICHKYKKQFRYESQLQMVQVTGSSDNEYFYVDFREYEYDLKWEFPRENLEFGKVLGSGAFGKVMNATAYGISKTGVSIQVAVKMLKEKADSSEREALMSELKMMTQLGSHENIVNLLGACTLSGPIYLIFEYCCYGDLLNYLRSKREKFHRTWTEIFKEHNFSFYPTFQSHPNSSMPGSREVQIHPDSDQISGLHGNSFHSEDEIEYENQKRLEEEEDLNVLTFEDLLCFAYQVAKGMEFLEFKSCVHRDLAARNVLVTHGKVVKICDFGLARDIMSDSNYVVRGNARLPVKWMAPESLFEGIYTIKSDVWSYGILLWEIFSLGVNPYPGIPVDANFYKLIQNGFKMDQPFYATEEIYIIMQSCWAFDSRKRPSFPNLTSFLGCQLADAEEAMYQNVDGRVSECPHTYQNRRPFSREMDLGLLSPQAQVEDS
Briefly: TR-FRET kinase activity assay, FLT3. Format: biochemical. To be noted: ATP at Km, 60 minutes. The essentials: (§1)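 Compounds were tested against each kinase with ATP set at its own Km and a labelled tyrosine peptide substrate. Following one hour at room temperature in buffer containing 10 mM MgCl2 and 1 mM DTT, phosphorylated product was detected by Europium antibody TR-FRET after EDTA quench, and IC50 values were calculated.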
(Time-resolved FRET reads energy transfer from a long-lived donor to a nearby acceptor.)

A further assay concerns the target T2, AXL (Homo sapiens, UniProt P30530).
T2 sequence (P30530 26-894): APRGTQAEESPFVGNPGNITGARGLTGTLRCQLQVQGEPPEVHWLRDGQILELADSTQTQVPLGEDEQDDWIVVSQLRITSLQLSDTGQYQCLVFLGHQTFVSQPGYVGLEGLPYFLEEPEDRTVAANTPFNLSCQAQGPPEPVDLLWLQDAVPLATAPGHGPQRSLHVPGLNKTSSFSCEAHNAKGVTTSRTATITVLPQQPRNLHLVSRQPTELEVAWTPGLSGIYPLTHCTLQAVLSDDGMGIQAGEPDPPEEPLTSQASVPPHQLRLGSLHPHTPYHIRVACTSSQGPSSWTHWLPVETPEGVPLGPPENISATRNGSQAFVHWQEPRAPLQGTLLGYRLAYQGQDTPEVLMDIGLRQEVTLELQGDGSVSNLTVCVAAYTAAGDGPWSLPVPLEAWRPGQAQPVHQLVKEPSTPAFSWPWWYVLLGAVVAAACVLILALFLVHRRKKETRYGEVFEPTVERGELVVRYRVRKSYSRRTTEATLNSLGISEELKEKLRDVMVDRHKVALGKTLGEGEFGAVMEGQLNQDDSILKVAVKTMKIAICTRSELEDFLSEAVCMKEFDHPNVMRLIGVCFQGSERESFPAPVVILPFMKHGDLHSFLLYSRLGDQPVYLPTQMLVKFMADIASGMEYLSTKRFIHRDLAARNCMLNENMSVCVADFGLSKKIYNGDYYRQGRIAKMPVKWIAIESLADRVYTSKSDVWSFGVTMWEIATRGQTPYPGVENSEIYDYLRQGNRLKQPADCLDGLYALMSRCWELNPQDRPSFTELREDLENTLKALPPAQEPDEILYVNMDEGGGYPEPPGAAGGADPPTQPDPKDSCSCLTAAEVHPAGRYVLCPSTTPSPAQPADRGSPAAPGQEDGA
Kind of assay: TR-FRET kinase activity assay, AXL. Format: biochemical. The settings on record: ATP at Km, 60 minutes. The essentials:
as §1

`C[C@@H](COC(F)F)Nc1ncc2c(-c3ccnc(N4CCOCC4)c3)cc([C@H]3CC[C@H](O)CC3)n2n1` [Compound 405]: the IC50 at FLT3 and against AXL was at most 0.1 µM each time.
In the case of `CNC(=O)c1cc(-c2cc([C@H]3CC[C@H](O)CC3)n3nc(N[C@@H](C)CC(F)(F)F)ncc23)ccn1` [Compound 384], the IC50 against FLT3 and against AXL was at most 0.1 µM each time.
In the case of `CNC(=O)c1cc(-c2cc([C@H]3CC[C@H](O)CC3)n3nc(N[C@@H](C)CC(F)(F)F)ncc23)cc(C)n1` [Compound 353], the IC50 at FLT3 and against AXL was 0.1 to 1 µM each time.
Take `CC(COC(F)F)Nc1ncc2c(-c3cnn(C(C)(C)C(=O)N4CCOCC4)c3)cc(C3CCC(O)CC3)n2n1` (stereo not drawn) [Compound 393]: the IC50 against FLT3 and at AXL was at most 0.1 µM in each case.
In the case of `COC[C@H](C)Nc1ncc2c(-c3ccnc(O[C@@H]4CCN(C)C4)c3)cc([C@H]3CC[C@H](O)CC3)n2n1` [Compound 402], the IC50 against FLT3 was 0.1 to 1 µM; against AXL, at most 0.1 µM.
For `CCCCC[C@H](C)Nc1ncc2c(C3=CCC(C(=O)O)CC3)cc([C@H]3CC[C@H](O)CC3)n2n1` (stereo partly drawn) [Compound 122, 4-(2-((S)-heptan-2-ylamino)-7-((trans)-4-hydroxycyclohexyl)pyrrolo[2,1-f][1,2,4]triazin-5-yl)cyclohex-3-enecarboxylic acid], in that order: 0.1 to 1 µM and at most 0.1 µM.
Take `OC1CCC(c2cc(-c3ccnc(N4CCOCC4)c3)c3cnc(NC4CCOC4)nn23)CC1` (stereo not drawn) [Compound 356]: the IC50 against FLT3 and against AXL was at most 0.1 µM throughout.
For `COC[C@H](C)Nc1ncc2c(-c3cnn(CC4CC(=O)N(C)C4)c3)cc([C@H]3CC[C@H](O)CC3)n2n1` (stereo partly drawn) [Compound 395], the IC50 against FLT3 was 0.1 to 1 µM; at AXL, at most 0.1 µM.
Take `COCC(C)Nc1ncc2c(C3CCN(C(C)=O)C3)cc(C3CCC(O)CC3)n2n1` (mixture of isomers) [Compound 383]: the results for the IC50 at FLT3 and at AXL were 1 to 10 µM and 0.1 to 1 µM, respectively.
For `CC(=O)N1CCN(Cc2ccc(-c3cc(C4CCC(O)CC4)n4nc(NC(C)CC(F)(F)F)ncc34)cc2)CC1` (stereo not drawn) [Compound 370], in that order: at most 0.1 µM and at most 0.1 µM.
`CN1CCN(Cc2ccc(-c3cc(C4CCC(O)CC4)n4nc(NC5CCC5(C)C)ncc34)cc2)CC1` (mixture of isomers) [Compound 121]: the IC50 against FLT3 and against AXL was 0.1 to 1 µM each time.
For the compound `C[C@H](CN(C)C)Nc1ncc2c(-c3cnn(C4COC4)c3)cc([C@H]3CC[C@H](O)CC3)n2n1` [Compound 388], the IC50 against FLT3 and against AXL was 1 to 10 µM in each case.

By IC50 is commonly meant the midpoint of a concentration-inhibition curve.
